Entries after “also recorded” stand apart in the source; their conditions may differ. Structures can show the parent of a compound that is named as a salt.
Tests used:
GAA KO mouse = assay: GAA enzyme activity in heart and diaphragm of GAA KO mouse (rhGAA uptake); format: in vivo; conditions: rhGAA co-administered with 1-DNJ-HCl vs ERT monotherapy
Procedure: Heart and Diaphragm tissue homogenates were harvested and rhGAA activity was measured using the fluorogenic substrate (4-MUG).

GAA KO mice [1] = assay: Tissue glycogen reduction in GAA KO mice; format: in vivo; conditions: Myozyme co-administered with 30 mg/kg 1-DNJ-HCl
Procedure: To prevent anaphylaxis, before the third and fourth Myozyme™ injection, diphenhydramine (10 mg/kg intraperitoneally) was administered 10 min before Myozyme™ injection. […] Mice were euthanized 14 days after the last Myozyme™ administration. Glycogen levels in heart, diaphragm, soleus, and quadriceps were then measured. […] Supernatants were heat denatured (99° C. for 10 min) to remove endogenous amyloglucosidase activity. […] The reaction was stopped by inactivation at 100° C. for 10 min. […] Simultaneously, the amount of protein was determined in tissue homogenates using the Micro BCA Protein Assay (Pierce, Rockford, Ill.) following the manufacturer's instructions. The glycogen content of each sample was normalized to protein, and data were finally expressed as micrograms of glycogen per milligram of protein (μg/mg protein).

GAA KO mice [2] = assay: In vivo uptake of Myozyme in GAA KO mice with and without oral 1-DNJ-HCl (4-MUG tissue GAA activity)
Source text: Enzymatic activity as determined using a 4-MUG fluorogenic substrate assay.

[3] = target: T1, recombinant human GAA (Myozyme®, Genzyme Corp.) (Homo sapiens, UniProt P10253); assay: SYPRO Orange thermal stability assay of rhGAA; format: binding
T1 construct: purchased Genzyme Corp; host or cells: Chinese hamster ovary cell line
Source text: The thermal stability assay utilizes heat to induce protein denaturation, which is monitored using a SYPRO Orange dye that fluoresces upon binding to hydrophobic amino acids (which are not exposed in a folded protein).
FIG. 2B depicts a parallel SYPRO Orange thermal stability experiment to determine if the loss of enzyme activity shown in FIG. 2A, particularly the loss of Myozyme activity at ER pH (7.4), correlates with protein unfolding and denaturation. […]
Denaturation is monitored using a SYPRO Orange dye that fluoresces upon binding to hydrophobic amino acids (which are not exposed in a folded protein).
The thermal stability was performed at pH 7.4 for two formulations, which corresponds to the pH of the ER.
In order to determine if loss of initial enzyme activity is correlated to failure to maintain a proper conformation, a SYPRO Orange thermal stability experiment was performed on the samples above as generally described in Example 1. […] Based on this experiment, the % of GAA folded was estimated and plotted in FIG. 2B. […]

rhGAA (Myozyme™) = target: T2, rhGAA (Myozyme™) (Homo sapiens, UniProt P10253); assay: rhGAA enzyme inactivation in citrate anti-coagulated whole blood at 37° C.; format: in vitro ADME; conditions: for rhGAA enzyme inactivated: whole blood 37° C., no 1-DNJ-HCl
T2 construct: purchased Genzyme Corp; host or cells: Chinese hamster ovary cell line
Procedure: Aliquots were collected at 0, 2, 4, 8 and 24 hrs and centrifuged to obtain plasma. These plasma samples were then diluted in potassium acetate buffer (pH 4.0) and assayed for GAA activity using the 4-methylumbeliferyl-α-glucose (4-MUG) fluorogenic substrate. The measured GAA activity for individual samples at each time point was normalized to the 0 hr and expressed as % of initial activity. Data from 4 independent experiments were analyzed to obtain the mean (and standard deviation) and plotted versus time to assess the loss of enzyme activity over this time course.
Aliquots were collected at 0, 3 and 6 hrs and centrifuged to obtain plasma. These plasma samples were then diluted in potassium acetate buffer (pH 4.0) and assayed for GAA activity using the 4-methylumbeliferyl-a-glucose (4-MUG) fluorogenic substrate. The measured GAA activity for individual samples at each time point was normalized to the 0 hr and expressed as % of initial activity.
Based on human plasma PK data, these concentrations are readily obtainable in the clinic.

[4] = stored at 2 to 8° C.; cited from earlier work

Row | rhGAA uptake in the heart and diaphragm (GAA activity) (GAA KO mouse) | rhGAA activity in whole blood (rhGAA (Myozyme™); rhGAA with 50 μM 1-DNJ-HCl, 37° C., up to 24 hrs) | rhGAA enzyme inactivated (rhGAA (Myozyme™); by 4 hrs) | rhGAA enzyme inactivated (rhGAA (Myozyme™); by 8 hrs) [%] | rhGAA enzyme inactivated (rhGAA (Myozyme™); by 24 hrs) [%] | Molecule | tissue glycogen reduction compared to Myozyme alone (GAA KO mice [1]) | Myozyme tissue uptake (as a measure of GAA activity) with coadministered 1-DNJ-HCl (GAA KO mice [2]; Myozyme 10 mg/kg IV weekly up to 3 weeks plus 10, 100, 1000 mg/kg oral 1-DNJ-HCl) | GAA folding / denaturation (% of GAA folded) ([3]; 37° C. over 24 hours, Myozyme 0.9 μM, pH 7.4, with or without 100 μM 1-DNJ-HCl) | stability of rhGAA (heat required to denature) ([3]; pH 7.4, Myozyme plus 100 μM 1-DNJ-HCl vs Myozyme alone, hydrochloride) | stabilizing rhGAA and preventing enzyme inactivation in whole blood (rhGAA (Myozyme™); high 1-DNJ-HCl concentrations (50 and 100 μM)) | Myozyme tissue uptake (as a measure of GAA activity) (GAA KO mice [2]; Myozyme 10 mg/kg IV weekly, 7 days post injection) | stability of rhGAA by pH ([3]; Myozyme alone, pH 5.2 vs pH 7.4) | time the product is stable on storage [4]
1 | increased | remained completely active |  |  |  | OC[C@H]1NC[C@H](O)[C@@H](O)[C@@H]1O [1-DNJ-HCl, 1-deoxynorjirimycin hydrochloride] | significantly greater tissue glycogen reduction | dose-dependent increase in Myozyme uptake | can prevent GAA denaturation and loss of enzyme activity | required significantly more heat to denature; also recorded: significantly increased | best for stabilizing rhGAA and preventing enzyme inactivation |  |  | 
2 |  |  | approximately 40% | ~70 | ~100 | Myozyme: alglucosidase alfa, human acid α-glucosidase produced by recombinant DNA technology in a Chinese hamster ovary cell line (Genzyme) |  |  |  |  |  | declined at 7 days post injection | much more stable at lysosomal pH (5.2) than at ER pH (7.4) | up to 24 hours

Source: US20100119502A1, “THERAPY REGIMENS, DOSING REGIMENS AND STABLE MEDICAMENTS FOR THE TREATMENT OF POMPE DISEASE” (AMICUS THERAPEUTICS, INC., priority 2008, published 2010)
